Laboratory results: ChEMBL document CHEMBL4359888, “Discovery of aryl-substituted indole and indoline derivatives as RORγt agonists” (Eur J Med Chem, 2019)
In brackets after ≈: the same amount, converted by molar mass.

Legend:
physchem = settings: phosphate buffer, pH 7.46
[1] = Metabolic stability in mouse liver microsomes assessed as half life of compound at 1 uM and measured for 60 mins in presence of NADPH by HPLC-MS/MS analysis; assay type: ADME, Microsome
in vitro = settings: mouse, liver microsomes
[2] = biological target: T1, Nuclear receptor ROR-gamma (Homo sapiens, UniProt P51449); test: Agonist activity at APC-labeled biotinylated RORgammaT LBD (unknown origin) assessed as induction of biotinylated SRC-1 peptide recruitment incubated for 1 hr by dual FRET assay
T1 sequence (P51449 whole entry): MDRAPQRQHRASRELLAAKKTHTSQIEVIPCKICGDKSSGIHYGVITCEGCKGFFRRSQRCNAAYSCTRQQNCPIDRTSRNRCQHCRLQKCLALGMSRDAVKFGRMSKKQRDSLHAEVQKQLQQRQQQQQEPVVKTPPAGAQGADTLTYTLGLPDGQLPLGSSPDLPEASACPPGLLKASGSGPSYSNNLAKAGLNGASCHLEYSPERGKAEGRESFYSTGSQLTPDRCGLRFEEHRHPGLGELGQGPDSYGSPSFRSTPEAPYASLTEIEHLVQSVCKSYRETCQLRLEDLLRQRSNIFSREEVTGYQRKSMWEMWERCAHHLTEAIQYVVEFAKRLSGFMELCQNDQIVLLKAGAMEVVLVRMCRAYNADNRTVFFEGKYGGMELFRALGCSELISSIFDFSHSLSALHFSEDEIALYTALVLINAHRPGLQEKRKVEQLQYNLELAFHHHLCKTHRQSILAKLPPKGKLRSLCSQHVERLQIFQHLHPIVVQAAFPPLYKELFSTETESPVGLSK

[3] = biological target: T1, Nuclear receptor ROR-gamma; test: Transactivation of human GAL4-fused RORgammaT LBD expressed in human HEK293T cells incubated for 16 to 20 hrs by steady-glo luciferase assay; assay type: cell-based
[4] = AUC (0 to last) in CD-1 mouse at 1 mg/kg, iv measured for 24 hrs by LC-MS/MS analysis; assay type: ADME, organism-based; set-up: dose 1 mg/kg, route intravenous, time 0 - last; settings: in vivo
[5] = Oral bioavailability in CD-1 mouse at 5 mg/kg measured for 24 hrs by LC-MS/MS analysis; assay type: ADME, organism-based; settings: in vivo
[6] = AUC (0 to last) in CD-1 mouse at 5 mg/kg, po measured for 24 hrs by LC-MS/MS analysis; assay type: ADME, organism-based; set-up: dose 5 mg/kg, route oral, time 0 - last; settings: in vivo
[7] = Cmax in CD-1 mouse at 1 mg/kg, iv measured for 24 hrs by LC-MS/MS analysis; assay type: ADME, organism-based; set-up: dose 1 mg/kg, route intravenous; settings: in vivo
[8] = Half life in CD-1 mouse at 5 mg/kg, po measured for 24 hrs by LC-MS/MS analysis; assay type: ADME, organism-based; settings: in vivo
[9] = Volume of distribution at steady state in CD-1 mouse at 1 mg/kg, iv measured for 24 hrs by LC-MS/MS analysis; assay type: ADME, organism-based; settings: in vivo, read-out: Vdss
[10] = Cmax in CD-1 mouse at 5 mg/kg, po measured for 24 hrs by LC-MS/MS analysis; assay type: ADME, organism-based; set-up: dose 5 mg/kg, route oral; settings: in vivo
[11] = Clearance in CD-1 mouse at 1 mg/kg, iv measured for 24 hrs by LC-MS/MS analysis; assay type: ADME, organism-based; settings: in vivo
[12] = Half life in CD-1 mouse at 1 mg/kg, iv measured for 24 hrs by LC-MS/MS analysis; assay type: ADME, organism-based; settings: in vivo

Row | Structure (SMILES) | half-life at 1 µM [1] | EC50 [2] | also measured
1 | CC(=O)N1CCN(c2ccc(OCC3COC(Cn4ccnc4)(c4ccc(Cl)cc4Cl)O3)cc2)CC1 (stereo not drawn) [KETOCONAZOLE] |  |  | solubility kinetic at 2 h, 100 µM (physchem): 31.1 µM (≈ 16.5 µg/mL)
2 | O=S(=O)(c1cccc(C(F)(F)F)c1)N1CCc2ccc(OCc3c(F)cccc3Cl)cc21 | 2.9 min | 30.2 nM | microsomal CLint at 1 h, 1 µM (in vitro): 482 µL/min/mg; solubility kinetic at 2 h, 100 µM (physchem): 0.08 µM (≈ 0.0389 µg/mL)
3 | O=C(O)CCCC1Cc2ccc(-c3cc(F)cc(OC(F)F)c3)cc2N1S(=O)(=O)c1cccc(C(F)(F)F)c1 (stereo not drawn) | 93.3 min | 25.2 nM | EC50 [3]: 422 nM
4 | O=C(O)CC1Cc2ccc(-c3ccc4c(c3)OC(F)(F)O4)cc2N1S(=O)(=O)c1cccc(C(F)(F)F)c1 (stereo not drawn) |  | 42.6 nM | 
5 | O=C(CC1Cc2ccc(-c3cc(F)cc(OC(F)F)c3)cc2N1S(=O)(=O)c1cccc(C(F)(F)F)c1)N1CCS(=O)(=O)CC1 (stereo not drawn) | 2 min | 43.4 nM | EC50 [3]: 322 nM
6 | O=C(O)CCc1cn(S(=O)(=O)c2cccc(C(F)(F)F)c2)c2cc(-c3cc(F)cc(OC(F)F)c3)ccc12 |  | 43.6 nM | 
7 | O=S(=O)(c1cccc(C(F)(F)F)c1)n1cnc2ccc(-c3cc(F)cc(OC(F)F)c3)cc21 |  | 122 nM | 
8 | O=C(O)CCc1cc2ccc(-c3cc(F)cc(OC(F)F)c3)cc2n1S(=O)(=O)c1cccc(C(F)(F)F)c1 | > 145 min | 25.5 nM | EC50 [3]: 1710 nM
9 | O=C(O)C[C@@H]1Cc2ccc(-c3cc(F)cc(OC(F)F)c3)cc2N1S(=O)(=O)c1cccc(C(F)(F)F)c1 |  | 16.1 nM | EC50 [3]: 201 nM
10 | O=C1CCN(C(=O)CC2Cc3ccc(-c4cc(F)cc(OC(F)F)c4)cc3N2S(=O)(=O)c2cccc(C(F)(F)F)c2)CC1 (stereo not drawn) |  | 80.4 nM | 
11 | O=C(O)Cc1cn(S(=O)(=O)c2cccc(C(F)(F)F)c2)c2cc(-c3cc(F)cc(OC(F)F)c3)ccc12 |  | 133 nM | 
12 | O=C(O)CCC1Cc2ccc(-c3cc(F)cc(OC(F)F)c3)cc2N1S(=O)(=O)c1cccc(C(F)(F)F)c1 (stereo not drawn) | 60.9 min | 31.3 nM | EC50 [3]: 2320 nM
13 | CC(C)Oc1cc(F)cc(-c2ccc3c(c2)N(S(=O)(=O)c2cccc(C(F)(F)F)c2)C(CC(=O)O)C3)c1 (stereo not drawn) |  | 124 nM | 
14 | O=C(O)CC1Cc2ccc(-c3ccc4c(c3)CCO4)cc2N1S(=O)(=O)c1cccc(C(F)(F)F)c1 (stereo not drawn) |  | 56.8 nM | 
15 | O=C(O)CCCc1cn(S(=O)(=O)c2cccc(C(F)(F)F)c2)c2cc(-c3cc(F)cc(OC(F)F)c3)ccc12 |  | 93.8 nM | 
16 | O=C(O)CC1Cc2ccc(-c3cc(F)cc(Cl)c3)cc2N1S(=O)(=O)c1cccc(C(F)(F)F)c1 (stereo not drawn) |  | 42 nM | 
17 | O=C(CC1Cc2ccc(-c3cc(F)cc(OC(F)F)c3)cc2N1S(=O)(=O)c1cccc(C(F)(F)F)c1)N1CCC(O)CC1 (stereo not drawn) | 0.7 min | 106 nM | EC50 [3]: 6040 nM
18 | CC(C)(C[C@H]1CN(S(=O)(=O)c2cccc(C(F)(F)F)c2)c2cc(-c3cc(F)cc(OC(F)F)c3)ccc2O1)C(=O)O [CINTIRORGON] |  |  | solubility kinetic at 2 h, 100 µM (physchem): 37.5 µM (≈ 22.6 µg/mL)
19 | O=C(O)c1cc2ccc(-c3cc(F)cc(OC(F)F)c3)cc2n1S(=O)(=O)c1cccc(C(F)(F)F)c1 |  | 74.3 nM | 
20 | O=C(O)C1CCN(C(=O)CC2Cc3ccc(-c4cc(F)cc(OC(F)F)c4)cc3N2S(=O)(=O)c2cccc(C(F)(F)F)c2)CC1 (stereo not drawn) | 30.1 min | 57.1 nM | EC50 [3]: 5440 nM
21 | CCOc1cc(F)cc(-c2ccc3c(c2)N(S(=O)(=O)c2cccc(C(F)(F)F)c2)C(CC(=O)O)C3)c1 (stereo not drawn) |  | 32.9 nM | 
22 | O=C(O)CC1CN(S(=O)(=O)c2cccc(C(F)(F)F)c2)c2cc(-c3cc(F)cc(OC(F)F)c3)ccc21 (stereo not drawn) | 45.6 min | 21.8 nM | 

Row | Structure (SMILES) | half-life at 1 µM [1] | EC50 [2] | also measured
23 | O=C1CCN(C(=O)CC2Cc3ccc(-c4cc(F)cc(OC(F)F)c4)cc3N2S(=O)(=O)c2cccc(C(F)(F)F)c2)C1 (stereo not drawn) |  | 52.3 nM | 
24 | O=C(O)CC1Cc2ccc(-c3ccc4c(c3)OCO4)cc2N1S(=O)(=O)c1cccc(C(F)(F)F)c1 (stereo not drawn) |  | 87.4 nM | 
25 | O=C(CC1Cc2ccc(-c3cc(F)cc(OC(F)F)c3)cc2N1S(=O)(=O)c1cccc(C(F)(F)F)c1)N1CCOCC1 (stereo not drawn) |  | 209 nM | 
26 | O=C(O)CC1Cc2ccc(-c3cccc(OC(F)(F)F)c3)cc2N1S(=O)(=O)c1cccc(C(F)(F)F)c1 (stereo not drawn) |  | 31.1 nM | 
27 | O=S(=O)(c1cccc(C(F)(F)F)c1)n1ncc2ccc(-c3cc(F)cc(OC(F)F)c3)cc21 |  | 205 nM | 
28 | O=C(O)C1CN(C(=O)CC2Cc3ccc(-c4cc(F)cc(OC(F)F)c4)cc3N2S(=O)(=O)c2cccc(C(F)(F)F)c2)C1 (stereo not drawn) | 65.9 min | 49.3 nM | EC50 [3]: 4050 nM
29 | O=C(O)Cc1cc2ccc(-c3cc(F)cc(OC(F)F)c3)cc2n1S(=O)(=O)c1cccc(C(F)(F)F)c1 |  | 125 nM | 
30 | O=C(O)C[C@H]1Cc2ccc(-c3cc(F)cc(OC(F)F)c3)cc2N1S(=O)(=O)c1cccc(C(F)(F)F)c1 |  | 286 nM | 
31 | O=S(=O)(c1cccc(C(F)(F)F)c1)n1ccc2ccc(-c3cc(F)cc(OC(F)F)c3)cc21 | 39.1 min | 99.4 nM | 
32 | O=C1CN(C(=O)CC2Cc3ccc(-c4cc(F)cc(OC(F)F)c4)cc3N2S(=O)(=O)c2cccc(C(F)(F)F)c2)C1 (stereo not drawn) |  | 78.8 nM | 
33 | O=C(O)CC1Cc2ccc(-c3cc(F)cc(F)c3)cc2N1S(=O)(=O)c1cccc(C(F)(F)F)c1 (stereo not drawn) |  | 25.7 nM | 
34 | O=C(CC1Cc2ccc(-c3cc(F)cc(OC(F)F)c3)cc2N1S(=O)(=O)c1cccc(C(F)(F)F)c1)N1CC2(COC2)C1 (stereo not drawn) | 0.7 min | 47.9 nM | EC50 [3]: 752 nM
35 | O=C(O)CCCC1CN(S(=O)(=O)c2cccc(C(F)(F)F)c2)c2cc(-c3cc(F)cc(OC(F)F)c3)ccc21 (stereo not drawn) | 34.2 min | 26.2 nM | 
36 | O=C(O)CCCc1cc2ccc(-c3cc(F)cc(OC(F)F)c3)cc2n1S(=O)(=O)c1cccc(C(F)(F)F)c1 |  | 45.3 nM | 
37 | O=S(=O)(c1cccc(C(F)(F)F)c1)N1CCc2ccc(-c3cc(F)cc(OC(F)F)c3)cc21 | 11.4 min | 50.6 nM | microsomal CLint at 1 h, 1 µM (in vitro): 121 µL/min/mg; solubility kinetic at 2 h, 100 µM (physchem): 1.48 µM (≈ 0.721 µg/mL)
38 | COC(=O)C1=C(C)NC(C)=C(C(=O)OCCN(C)Cc2ccccc2)C1c1cccc([N+](=O)[O-])c1 (stereo not drawn) [NICARDIPINE] |  |  | solubility kinetic at 2 h, 100 µM (physchem): 5.01 µM (≈ 2.4 µg/mL)
39 | O=C(O)CC1Cc2ccc(-c3cc(F)cc(C(F)(F)F)c3)cc2N1S(=O)(=O)c1cccc(C(F)(F)F)c1 (stereo not drawn) |  | 41.3 nM | 
40 | O=C(O)CC1Cc2ccc(-c3cc(F)cc(OC(F)F)c3)cc2N1S(=O)(=O)c1cccc(C(F)(F)F)c1 (racemic) | 113 min | 20.8 nM | AUC(0-t) at 24 h [4]: 1710 ng·h/mL; microsomal CLint at 1 h, 1 µM (in vitro): 12.3 µL/min/mg; bioavailability [5]: 107%; AUC(0-t) at 24 h [6]: 9120 ng·h/mL; Cmax [7]: 1640 ng/mL; half-life [8]: 249 min; Vd [9]: 2.09 L/kg; solubility kinetic at 2 h, 100 µM (physchem): 69.4 µM (≈ 37.9 µg/mL); Cmax [10]: 1400 ng/mL; clearance [11]: 9.55 mL/min/kg; half-life [12]: 295 min; EC50 [3]: 247 nM
41 | O=C(CC1Cc2ccc(-c3cc(F)cc(OC(F)F)c3)cc2N1S(=O)(=O)c1cccc(C(F)(F)F)c1)N1CC(O)C1 (stereo not drawn) |  | 244 nM | 
42 | O=C(O)CCC1CN(S(=O)(=O)c2cccc(C(F)(F)F)c2)c2cc(-c3cc(F)cc(OC(F)F)c3)ccc21 (stereo not drawn) | 24.5 min | 14.6 nM | 
43 | COc1cc(F)cc(-c2ccc3c(c2)N(S(=O)(=O)c2cccc(C(F)(F)F)c2)C(CC(=O)O)C3)c1 (stereo not drawn) |  | 39.3 nM | 
